Source: BindingDB's records for doi:10.1021/jm00011a005 (University of Minnesota, 1995)

Molecular target: Aldehyde dehydrogenase (Saccharomyces cerevisiae)
Assay: In vitro inhibition against yeast Aldehyde dehydrogenase

Row | SMILES | IC50
1 | O=C1c2ccccc2S(=O)(=O)N1O [2-Hydroxy-1,1-dioxo-1,2-dihydro-1lambda*6*-benzo[d]isothiazol-3-one] | > 1000 µM
2 | CC(=O)ON1C(=O)c2ccccc2S1(=O)=O [Acetic acid 1,1,3-trioxo-1,3-dihydro-1lambda*6*-benzo[d]isothiazol-2-yl ester] | 240 µM
